Results taken from patent US20060194828A1, “Vitamin comprising pyroloquinoline quinone and use thereof” (priority 2003, published 2006).
Entries after “also recorded” stand apart in the source; their conditions may differ.

Key:
AASDH activity (mU26) = test: PQQ-deficient feedstuff given to mice, levels of amino acids and AAA in blood; format: in vivo, mouse; conditions: PQQ-deficient vs PQQ-added (100 ng PQQ·2Na per gram) feedstuff, ICR female mice, 20 days
Description: The mice were fed with feedstuff, to which PQQ had not been added (−PQQ) or had been added (+PQQ) and which had chemically been limited, for 20 days. Thereafter, the peripheral blood was collected therefrom, and amino acids contained in the blood were quantified using an amino acid analyzer. The amount of lysine (A) was indicated with a percentage to the total amount of amino acids in blood. The amount of 2-aminoadipic acid was normalized with lysine (B) or glycine (C). The horizontal line represents the mean value of mice in each group.
In order to clarify the role of PQQ influenced on AASDH activity, feedstuff containing no PQQ was given to mice, and such influence was examined. Chemically defined feedstuff (to which no PQQ was added or 100 ng PQQ·2Na was added per gram of feedstuff) was produced in accordance with the publication (Killgore, J. et al. (1989) Science 245, 850-852; Steinberg, F. M. et al. (1994) J. Nutr. 124, 744-753). The thus produced feedstuff was given to virgin female mice (ICR, 4-week-old) for 20 days. The levels of various amino acids and AAA in blood were measured by the above-described method. […] In particular, when normalization was carried out with the amount of lysine, AAA was reduced most clearly (FIG. 6B).

PQQ-deficient mice = conditions: skin fragility, skeletal abnormality, decreased immune response, poor reproduction and growth; cited from earlier work

Q: Which “level of AAA (2-aminoadipic acid) in blood” value (AASDH activity (mU26); normalized with lysine or glycine) does the source give for `O=C(O)c1cc(C(=O)O)c2c(n1)C(=O)C(=O)c1cc(C(=O)O)[nH]c1-2` [PQQ, pyrroloquinoline quinone] here?
A: reduced more significantly; also recorded: significantly decreased in PQQ-deficient mice

Q: And the “amount of lysine in blood” value (AASDH activity (mU26); percentage to total amino acids in blood)?
A: not significantly different; also recorded: not changed

Q: What about the “amount of PQQ added to feedstuff that recovered the abnormalities of PQQ-deficient mice” value (PQQ-deficient mice) of the same compound?
A: ≥ 800 ng per gram of feedstuff
